Assay results: paper PMC5488875 (Anticancer research, 2017)
Values belong to the compound of their own block, whether it stands above or below them.

Assays:
MDA-MB-231 cells [1] = assay: ROS assay; type: cell-based
[2] = test system: HT-29 colon cancer cell line; assay: ROS assay; type: cell-based; conditions: HT-29, 100 μM (highest concentration)
[3] = test system: HeLa cervical cancer cell line; assay: ROS assay; type: cell-based; conditions: 100 μM (highest concentration)
MDA-MB-231 cells [4] = test system: MDA-MB-231 cells

Compound: COC[C@H]1OC(=O)c2coc3c2[C@@]1(C)C1=C(C3=O)[C@@H]2CCC(=O)[C@@]2(C)C[C@H]1OC(C)=O [wortmannin]
ROS inducing effect (MDA-MB-231 cells [1]; MDA-MB-231 breast cancer cells): potent ROS inducing agent | difference in concentration to exhibit the same ROS effect in the other two cancer cell lines (MDA-MB-231 cells [1]; MDA-MB-231 vs HeLa and HT-29): 1000 x | ROS inducing effect [2]: Strong ROS inducing effect | ROS inducing effect [3]: Strong ROS inducing effect

EC50 (MDA-MB-231 cells [4]): 8.93 µM
Compound: acetylwortmannolone [Compound 1]
ROS (reactive oxygen species fold increase) (MDA-MB-231 cells [1]; MDA-MB-231 cells, concentration not given): 1.58 fold increase
